# Laboratory results taken from patent publication US20210392936A1, “Nutritional composition comprising urea and non-digestible oligosaccharides” (N.V. Nutricia, priority 2018, published 2021).
# Assays:
# [1] = system: B. longum spp infantis M-63, B. longum subspecies infantis ATCC 17930, B. longum ssp. infantis R-0033 (single strains); test: Growth of single urease positive strains with urea and a carbon source without CO2 and other nitrogen source; assay type: cell-based, Bifidobacterium longum subspecies infantis; details: presence of urea and a carbon source, absence of CO2 and other nitrogen source; data not shown
# From the text: (§1) The following strains were used: Bifidobacterium breve DSM20213, which is the type strain of B. breve and urease negative. A mix of Bifidobacterium longum subspecies infantis strains was used that were predicted to be urease positive, to increase the chance of having a urease activity. […] Strains used were a mix of Bifidobacterium longum spp infantis DSM20088 (type strain), B. infantis M-63 (Morinaga), B. longum subspecies infantis ATCC 17930, B. longum subspecies infantis DN_163_0041 isolated from the faeces of a bottle-fed infants, B. infantis DN_163_0046 and B. longum ssp. infantis R-0033 (Lallemand) and Bifidobacterium bifidum ATCC29521 (type strain).
# [2] = system: Bifidobacterium longum subspecies infantis ATCC 17930 (urease positive); test: Growth of strain ATCC 17930 with or without urea, CO2 and 2'FL as carbon source (Example 4); assay type: cell-based; details: 10 mM urea
# Method: In this experiment the urease positive strain Bifidobacterium longum subspecies infantis ATCC 17930, was used. The same growth media and experimental set up as in the second experiment described in example 3 was used, except that instead of scGOS/IcFOS, 2′-fucosyllactose (Jennewein Biotechnologie GmbH) was used as a carbon and energy source. As a nitrogen source tryptone was added (3.0 g/l), or no urea or 10 mM urea (final concentration), corresponding to 0, or 0.6 g/l urea.
# [3] = system: urease negative Bifidobacteria (Bifidobacterium breve DSM20213); test: Growth with urea or tryptone as nitrogen source, scGOS/IcFOS as carbon source (Example 3, second experiment), urease negative; assay type: cell-based; details: CO2 gas, 50 mM urea, scGOS/IcFOS 20 g/l
# [4] = system: Bifidobacterium breve DSM20213 (urease negative); test: Fermenter growth of urease negative Bifidobacterium with or without urea and CO2 (Example 3, first experiment); assay type: cell-based; details: urea N source (100 mM), lactose 20 g/l
# From the text: as §1
# (§2) g/l yeast extract, 0.75 g/l tryptone, 3 g/l KH2PO4, 4.8 g/l K2HPO4, 0.2 g/l MgSO4, 0.5 g Cysteine.HCl, 15 g Sodium Propionate, supplemented with 10 ml vitamin mix and 10 ml metal mix from 100× concentrates (Teusink et al. 2005, AEM, Vol 71 (issue 11) p. 7253-7262) and 100 μM NiCl. The pH of this medium is 6.8 (+/−0.05). As carbon source 20 g/l lactose was used and when appropriate urea was added to a final concentration of 100 mM. The medium was sterilized using filtration step with a 0.22 μm filter. […] Precultures of bifidobacterium strains were grown statically in absence of urea at 37° C. in an anaerobic atmosphere (90% N2, 5% Hz, 5% CO2).
# (§3) Inoculation occurred from a single colonies grown on TOS-mupirocin agar plates as known in the art. The main cultures (in the fermenters) were performed with 1×BASE supplemented with 0, 15, 50 or 100 mM urea (if applicable). During fermentation the headspace was flushed with N2 gas or with an anaerobic gas mixture ((90% N2, 5% H2, 5% CO2). CO2 is known to be needed for the growth of most Bifidobacteria in the absence of substrates that can liberate CO2.
# (§4) The main fermenters were inoculated with the preculture of B. breve at an OD600 of 0.05. For the B. longum subspecies infantis and bifidum mix the individual precultures were first mixed in an equal amount based on OD600 and subsequently also inoculated with a start OD600 of 0.05. The medium was stirred at 360 rpm by magnet stirring bar. The pH was controlled at 6.2 by addition of 5M NaOH. All growth (precultures, main fermenters, agar plates) experiments were performed at 37° C. Growth was monitored in time by off-line OD600 measurement. Samples were diluted before measurement where appropriate.
# [5] = system: urease positive Bifidobacteria (mix of Bifidobacterium longum subspecies infantis strains and Bifidobacterium bifidum ATCC29521); test: Fermenter growth of urease positive Bifidobacteria mix with or without urea and CO2 (Example 3, first experiment); assay type: cell-based; details: urea N source (100 mM), lactose 20 g/l
# From the text: as §1, §2, §3, §4
# [6] = system: urease positive B. longum ssp. infantis strains M-63, ATCC17930, DN_163_0041 and R-0033; test: Growth with urea concentrations or tryptone as nitrogen source, scGOS/IcFOS as carbon source (Example 3, second experiment), urease positive; assay type: cell-based, Bifidobacterium longum ssp. infantis; details: scGOS/IcFOS 20 g/l
# Method: Fermenters were sterilized containing 80 ml demi water and 20 ml of a 20 wt % solution of scGOS/IcFOS in a 9:1 wt/wt ratio. As a source of scGOS VivinalGOS (DOMO, Friesland Campina) was used, and as a source of IcFOS, RaftilinHP was used (Orafti). After sterilization 100 ml of sterilized 2× concentrated BASE medium was added. The final concentration of scGOS/IcFOS was 2 wt % based on volume, and this served as the carbon source. As a nitrogen source tryptone was added (3.0 g/l), or 0, 10, 50 or 100 mM urea (final concentration), corresponding to 0, 0.6 g/l, 3 g/l and 6 g/l. Precultures were grown in static tubes in 1×BASE supplemented with 3.0 g/l tryptone and 2 wt % scGOS/IcFOS under an anaerobic gas atmosphere (90% N2, 5% Hz, 5% CO2).
# as §3, §4
# A second experiment was performed. Here the growth with different concentrations urea as nitrogen (and CO2) source was compared to Tryptone (from Oxoid) as nitrogen source. In this case only B. longum ssp. infantis strains M-63, ATCC17930, DN_163_0041 and R-0033 were used and tryptone was removed from the basal medium. Where applicable tryptone or urea were added as nitrogen source to final concentrations of 3 g/l and 10, 50 or 100 mM, respectively. Instead of lactose as carbon source scGOS/IcFOS in a 9:1 wt/wt ratio was used in a final concentration of 20 g/l. As a source of scGOS VivinalGOS (FrieslandCampina) was used, and RaftininHP (Orafti) was used as IcFOS source.
smiles,measurement,setting,value
NC(N)=O [urea],Growth of single strains,[1],able to grow very well
same,Growth expressed as OD600,"[2]; CO2 gas, with 2'FL C source (+), 30 min",0.072 OD600
same,Growth expressed as OD600,"[2]; CO2 gas, with 2'FL C source (+), 240 min",0.298 OD600
same,Growth expressed as OD600,"[2]; CO2 gas, with 2'FL C source (+), 360 min",0.880 OD600
same,Growth expressed as OD600,"[2]; CO2 gas, with 2'FL C source (+), 540 min",2.070 OD600
same,Growth expressed as OD600,"[2]; CO2 gas, with 2'FL C source (+), 24 h",3.060 OD600
same,Growth expressed as OD600,"[2]; CO2 gas, without 2'FL C source (−), 30 min",0.071 OD600
same,Growth expressed as OD600,"[2]; CO2 gas, without 2'FL C source (−), 240 min",0.203 OD600
same,Growth expressed as OD600,"[2]; CO2 gas, without 2'FL C source (−), 360 min",0.191 OD600
same,Growth expressed as OD600,"[2]; CO2 gas, without 2'FL C source (−), 540 min",0.191 OD600
same,Growth expressed as OD600,"[2]; CO2 gas, without 2'FL C source (−), 24 h",0.187 OD600
same,Growth expressed as OD600,"[2]; N2 gas, with 2'FL C source (+), 30 min",0.079 OD600
same,Growth expressed as OD600,"[2]; N2 gas, with 2'FL C source (+), 240 min",0.154 OD600
same,Growth expressed as OD600,"[2]; N2 gas, with 2'FL C source (+), 360 min",0.350 OD600
same,Growth expressed as OD600,"[2]; N2 gas, with 2'FL C source (+), 540 min",0.600 OD600
same,Growth expressed as OD600,"[2]; N2 gas, with 2'FL C source (+), 24 h",1.320 OD600
same,Growth expressed as OD600,"[2]; N2 gas, without 2'FL C source (−), 30 min",0.068 OD600
same,Growth expressed as OD600,"[2]; N2 gas, without 2'FL C source (−), 240 min",0.175 OD600
same,Growth expressed as OD600,"[2]; N2 gas, without 2'FL C source (−), 360 min",0.179 OD600
same,Growth expressed as OD600,"[2]; N2 gas, without 2'FL C source (−), 540 min",0.163 OD600
same,Growth expressed as OD600,"[2]; N2 gas, without 2'FL C source (−), 24 h",0.157 OD600
same,Growth expressed as OD600,[3]; 15 min,0.074 OD600
same,Growth expressed as OD600,[3]; 135 min,0.125 OD600
same,Growth expressed as OD600,[3]; 270 min,0.280 OD600
same,Growth expressed as OD600,[3]; 445 min,0.460 OD600
same,Growth expressed as OD600,[3]; 625 min,0.590 OD600
same,Growth expressed as OD600,[3]; 24 h,1.020 OD600
same,Growth expressed as OD600,"[4]; CO2 gas, 60 min",0.062 OD600
same,Growth expressed as OD600,"[4]; CO2 gas, 180 min",0.083 OD600
same,Growth expressed as OD600,"[4]; CO2 gas, 360 min",0.211 OD600
same,Growth expressed as OD600,"[4]; CO2 gas, 660 min",1.560 OD600
same,Growth expressed as OD600,"[4]; CO2 gas, 23 h",2.250 OD600
same,Growth expressed as OD600,"[4]; N2 gas, 60 min",0.051 OD600
same,Growth expressed as OD600,"[4]; N2 gas, 180 min",0.061 OD600
same,Growth expressed as OD600,"[4]; N2 gas, 360 min",0.072 OD600
same,Growth expressed as OD600,"[4]; N2 gas, 660 min",0.054 OD600
same,Growth expressed as OD600,"[4]; N2 gas, 23 h",0.046 OD600
same,Growth expressed as OD600,"[5]; CO2 gas, 60 min",0.099 OD600
same,Growth expressed as OD600,"[5]; CO2 gas, 180 min",0.168 OD600
same,Growth expressed as OD600,"[5]; CO2 gas, 360 min",0.680 OD600
same,Growth expressed as OD600,"[5]; CO2 gas, 660 min",3.940 OD600
same,Growth expressed as OD600,"[5]; CO2 gas, 23 h",3.850 OD600
same,Growth expressed as OD600,"[5]; N2 gas, 60 min",0.095 OD600
same,Growth expressed as OD600,"[5]; N2 gas, 180 min",0.161 OD600
same,Growth expressed as OD600,"[5]; N2 gas, 360 min",0.560 OD600
same,Growth expressed as OD600,"[5]; N2 gas, 660 min",3.930 OD600
same,Growth expressed as OD600,"[5]; N2 gas, 23 h",3.700 OD600
same,Growth expressed as OD600,"[6]; CO2 gas, 50 mM urea, 15 min",0.079 OD600
same,Growth expressed as OD600,"[6]; CO2 gas, 50 mM urea, 135 min",0.161 OD600
same,Growth expressed as OD600,"[6]; CO2 gas, 50 mM urea, 270 min",0.670 OD600
same,Growth expressed as OD600,"[6]; CO2 gas, 50 mM urea, 445 min",2.610 OD600
same,Growth expressed as OD600,"[6]; CO2 gas, 50 mM urea, 625 min",6.500 OD600
same,Growth expressed as OD600,"[6]; CO2 gas, 50 mM urea, 24 h",6.5 OD600
same,Growth expressed as OD600,"[6]; N2 gas, 10 mM urea, 15 min",0.084 OD600
same,Growth expressed as OD600,"[6]; N2 gas, 10 mM urea, 135 min",0.137 OD600
same,Growth expressed as OD600,"[6]; N2 gas, 10 mM urea, 270 min",0.390 OD600
same,Growth expressed as OD600,"[6]; N2 gas, 10 mM urea, 445 min",1.280 OD600
same,Growth expressed as OD600,"[6]; N2 gas, 10 mM urea, 625 min",3.900 OD600
same,Growth expressed as OD600,"[6]; N2 gas, 10 mM urea, 24 h",3.720 OD600
same,Growth expressed as OD600,"[6]; N2 gas, 50 mM urea, 15 min",0.082 OD600
same,Growth expressed as OD600,"[6]; N2 gas, 50 mM urea, 135 min",0.140 OD600
same,Growth expressed as OD600,"[6]; N2 gas, 50 mM urea, 270 min",0.450 OD600
same,Growth expressed as OD600,"[6]; N2 gas, 50 mM urea, 445 min",1.260 OD600
same,Growth expressed as OD600,"[6]; N2 gas, 50 mM urea, 625 min",2.970 OD600
same,Growth expressed as OD600,"[6]; N2 gas, 50 mM urea, 24 h",2.850 OD600
same,Growth expressed as OD600,"[6]; N2 gas, 100 mM urea, 15 min",0.079 OD600
same,Growth expressed as OD600,"[6]; N2 gas, 100 mM urea, 135 min",0.144 OD600
same,Growth expressed as OD600,"[6]; N2 gas, 100 mM urea, 270 min",0.430 OD600
same,Growth expressed as OD600,"[6]; N2 gas, 100 mM urea, 445 min",1.130 OD600
same,Growth expressed as OD600,"[6]; N2 gas, 100 mM urea, 625 min",2.800 OD600
same,Growth expressed as OD600,"[6]; N2 gas, 100 mM urea, 24 h",2.520 OD600
